Experimental findings from patent publication US12473304B2, “Heterocyclic PAD4 inhibitors” (BRISTOL-MYERS SQUIBB COMPANY, priority 2020, dated 2025) are described below.

This assay deals with human PAD4 (hPAD4) (Homo sapiens (Human), UniProt Q9UM07). Put plainly: RFMS Human PAD4 Functional Assay 1. The class given is biochemical. The settings on record: RFMS assay 1; 5 nM hPAD4, 250 μM BAEE substrate, 50 μM calcium, 37° C. The gist of the method:
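Citrullination product read by RapidFire triple-quad MRM against a modified-citrulline internal standard, after TCA stop and 30 min phenyl glyoxal step at 37 °C. Reaction: 250 μM BAEE, 5 nM human PAD4, 90 min at 37 °C, pH 7.5 HEPES buffer with 50 μM calcium and 5 μM TPEN, following 30 min compound–enzyme preincubation (max 50 μM).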

Structures are written as SMILES.

Sequence of human PAD4 (hPAD4) (Q9UM07 whole entry): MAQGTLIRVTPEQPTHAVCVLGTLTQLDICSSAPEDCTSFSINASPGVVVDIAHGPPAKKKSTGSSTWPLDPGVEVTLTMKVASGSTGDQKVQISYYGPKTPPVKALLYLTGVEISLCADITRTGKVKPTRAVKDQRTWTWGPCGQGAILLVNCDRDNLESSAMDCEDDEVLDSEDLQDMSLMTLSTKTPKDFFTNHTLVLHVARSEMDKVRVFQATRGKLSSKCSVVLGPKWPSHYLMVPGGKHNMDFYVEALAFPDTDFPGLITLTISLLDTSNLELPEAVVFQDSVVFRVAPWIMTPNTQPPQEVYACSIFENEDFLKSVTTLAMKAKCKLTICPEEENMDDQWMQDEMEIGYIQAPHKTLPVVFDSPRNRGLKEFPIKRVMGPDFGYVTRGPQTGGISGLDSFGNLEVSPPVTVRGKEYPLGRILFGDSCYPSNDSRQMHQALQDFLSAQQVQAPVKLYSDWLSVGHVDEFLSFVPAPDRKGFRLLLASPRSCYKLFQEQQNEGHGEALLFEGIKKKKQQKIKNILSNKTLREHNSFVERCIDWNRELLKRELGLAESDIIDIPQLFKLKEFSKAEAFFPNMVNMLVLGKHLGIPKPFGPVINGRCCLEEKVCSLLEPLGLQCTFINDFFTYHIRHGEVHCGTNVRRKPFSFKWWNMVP

Regarding `Cc1c(-c2cc3ccc(-c4ccc5c(c4)C(=O)NC5)cc3n2CC2CC2)nn2cc(C(=O)N3CC4CCC3[C@@H]4N)ccc12` (stereo partly drawn) [Example 89, 6-(2-(6-((7R)-7-Amino-2-azabicyclo[2.2.1]heptane-2-carbonyl)-3-methylpyrazolo[1,5-a]pyridin-2-yl)-1-(cyclopropylmethyl)-1H-indol-6-yl)isoindolin-1-one], the half-maximal inhibitory concentration (IC50) was found to be 48 nM.

Turning to `CC(=O)N1CCC(c2cccc3cc(-c4nn5cc(C(=O)N6CCC[C@@H](N)C6)ccc5c4C)n(CC4CC4)c23)CC1` [Example 479, (R)-1-(4-(2-(6-(3-Aminopiperidine-1-carbonyl)-3-methylpyrazolo[1,5-a]pyridin-2-yl)-1-(cyclopropylmethyl)-1H-indol-7-yl)piperidin-1-yl)ethan-1-one], the IC50 was 390 nM.

With `Cc1c(O)cccc1-c1ccc2cc(-c3nn4cc(C(=O)N5CC6CCC5[C@@H]6N)ccc4c3C)n(CC3CC3)c2n1` (stereo partly drawn) [Example 301, 3-(2-{6-[(7R)-7-Amino-2-azabicyclo[2.2.1]heptane-2-carbonyl]-3-methylpyrazolo[1,5-a]pyridin-2-yl}-1-(cyclopropylmethyl)-1H-pyrrolo[2,3-b]pyridin-6-yl)-2-methylphenol], the concentration for half-maximal inhibition (IC50) stood at 30 nM.

Consider `Cc1c(-c2cc3ccc(-c4cccc(O)c4F)cc3n2CC2CC2)nn2cc(C(=O)N3CC4CCC3[C@@H]4N)cc(F)c12` (stereo partly drawn) [Example 59, ((7R)-7-Amino-2-azabicyclo[2.2.1]heptan-2-yl)(2-(1-(cyclopropylmethyl)-6-(2-fluoro-3-hydroxyphenyl)-1H-indol-2-yl)-4-fluoro-3-methylpyrazolo[1,5-a]pyridin-6-yl)methanone], for which the half-inhibitory concentration (IC50) was 291 nM.

On to `COc1cc(C(=O)N2CCC[C@@H](N)C2)cn2nc(-c3cc4ccc(-c5cccc(CNC(C)=O)c5)cc4n3CC3CC3)c(C)c12` [Example 232, N-{[3-(2-{6-[(3R)-3-Aminopiperidine-1-carbonyl]-4-methoxy-3-methylpyrazolo[1,5-a]pyridin-2-yl}-1-(cyclopropylmethyl)-1H-indol-6-yl)phenyl]methyl}acetamide], for which the IC50 turned out to be 900 nM.

With `COc1cc(C(=O)N2CC3CCC2[C@@H]3N)cc2oc(-c3cc4ccc(-c5ccc6c(c5)C(=O)NC6)cc4n3CC3CC3)c(C)c12` (stereo partly drawn) [Example 150, 6-(2-(6-((7R)-7-Amino-2-azabicyclo[2.2.1]-heptane-2-carbonyl)-4-methoxy-3-methylbenzofuran-2-yl)-1-(cyclopropylmethyl)-1H-indol-6-yl)isoindolin-1-one], the concentration for half-maximal inhibition (IC50) turned out to be 187 nM.

On to `Cc1c(-c2cc3cccc(OC[C@H]4CCC(=O)N4)c3n2CC2CC2)nn2cc(C(=O)N3C[C@H](N)C[C@@H](F)C3)ccc12` [Example 587, (R)-5-(((2-(6-((3R,5R)-3-Amino-5-fluoropiperidine-1-carbonyl)-3-methylpyrazolo[1,5-a]pyridin-2-yl)-1-(cyclopropylmethyl)-1H-indol-7-yl)oxy)methyl)pyrrolidin-2-one], for which the IC50 turned out to be 1120 nM.

Consider `COc1cc(C(=O)N2C[C@H](N)C[C@@H](F)C2)cn2nc(-c3cc4cccc(C5CCN(C(=O)[C@H](C)OC)CC5)c4n3CC3CC3)c(C)c12` [Example 404, (S)-1-(4-(2-(6-((3R,5R)-3-Amino-5-fluoropiperidine-1-carbonyl)-4-methoxy-3-methylpyrazolo[1,5-a]pyridin-2-yl)-1-(cyclopropylmethyl)-1H-indol-7-yl)piperidin-1-yl)-2-methoxypropan-1-one], for which the half-maximal inhibitory concentration (IC50) was found to be 30 nM.

With `COc1cc(C(=O)N2C[C@H](N)C[C@@H](F)C2)cn2nc(-c3cc4ccc(-c5cccc(CO)c5)cc4n3CC3CC3)c(C)c12` [Example 210, [3-(2-{6-[(3R,5R)-3-Amino-5-fluoropiperidine-1-carbonyl]-4-methoxy-3-methylpyrazolo[1,5-a]pyridin-2-yl}-1-(cyclopropylmethyl)-1H-indol-6-yl)phenyl]methanol], the IC50 stood at 490 nM.

In the case of `CO[C@H](C)C(=O)N1CCC(c2cc(F)cc3cc(-c4nn5cc(C(=O)N6CCC[C@@H](N)C6)ccc5c4C)n(CC4CC4)c23)CC1` [Example 497, (R)-1-(4-(2-(6-((R)-3-Aminopiperidine-1-carbonyl)-3-methylpyrazolo[1,5-a]pyridin-2-yl)-1-(cyclopropylmethyl)-5-fluoro-1H-indol-7-yl)piperidin-1-yl)-2-methoxypropan-1-one], the 50% inhibitory concentration (IC50) was found to be 40 nM.

As for `Cc1c(-c2cc3cccc(OCCn4cncn4)c3n2CC2CC2)nn2cc(C(=O)N3C[C@H](N)C[C@@H](F)C3)ccc12` [Example 581, (2-(7-(2-(1H-1,2,4-Triazol-1-yl)ethoxy)-1-(cyclopropylmethyl)-1H-indol-2-yl)-3-methylpyrazolo[1,5-a]pyridin-6-yl)((3R, 5R)-3-amino-5-fluoropiperidin-1-yl)methanone], the IC50 is 30 nM.

For the compound `Cc1c(-c2cc3ccc(-c4ccccc4N4CCNC4=O)nc3n2CC2CC2)nn2cc(C(=O)N3CC4CCC3[C@@H]4N)cc(F)c12` (stereo partly drawn) [Example 257, 1-[2-(2-{6-[(7R)-7-Amino-2-azabicyclo[2.2.1]heptane-2-carbonyl]-4-fluoro-3-methylpyrazolo[1,5-a]pyridin-2-yl}-1-(cyclopropylmethyl)-1H-pyrrolo[2,3-b]pyridin-6-yl)phenyl]imidazolidin-2-one], the IC50 amounted to 60 nM.

On to `COc1cc(C(=O)N2CC3CCC2[C@@H]3N)cn2nc(-c3cc4ccc(-c5ccn6c(C)nnc6c5)cc4n3CC3CC3)c(C)c12` (stereo partly drawn) [Example 25, ((7R)-7-Amino-2-azabicyclo[2.2.1]heptan-2-yl)(2-(1-(cyclopropylmethyl)-6-(3-methyl-[1,2,4]triazolo[4,3-a]pyridin-7-yl)-1H-indol-2-yl)-4-methoxy-3-methylpyrazolo[1,5-a]pyridin-6-yl)methanone], for which the IC50 was 17 nM.

For the compound `COc1cc(C(=O)N2CC3CCC2[C@@H]3N)cc2sc(-c3cc4ccccc4n3CC3CC3)c(C)c12` (stereo partly drawn) [Example 118, ((7R)-7-Amino-2-azabicyclo[2.2.1]heptan-2-yl)(2-(1-(cyclopropylmethyl)-1H-indol-2-yl)-4-methoxy-3-methylbenzo[b]thiophen-6-yl)methanone], the half-maximal inhibitory concentration (IC50) was determined as 157 nM.

Regarding `Cc1c(-c2cc3ccc(-c4ccc(O)c(F)c4)cc3n2CC2CC2)nn2cc(C(=O)N3CC4CCC3[C@@H]4N)cc(F)c12` (stereo partly drawn) [Example 60, ((7R)-7-Amino-2-azabicyclo[2.2.1]heptan-2-yl)(2-(1-(cyclopropylmethyl)-6-(3-fluoro-4-hydroxyphenyl)-1H-indol-2-yl)-4-fluoro-3-methylpyrazolo[1,5-a]pyridin-6-yl)methanone], the IC50 came to 83 nM.

With `Cc1c(-c2cc3ccc(-c4ccc(N5CCNC5=O)cc4)nc3n2CC2CC2)nn2cc(C(=O)N3CC4CCC3[C@@H]4N)cc(F)c12` (stereo partly drawn) [Example 261, 1-[4-(2-{6-[(7R)-7-Amino-2-azabicyclo[2.2.1]heptane-2-carbonyl]-4-fluoro-3-methylpyrazolo[1,5-a]pyridin-2-yl}-1-(cyclopropylmethyl)-1H-pyrrolo[2,3-b]pyridin-6-yl)phenyl]imidazolidin-2-one], the IC50 was found to be 420 nM.

In the case of `Cc1c(O)cccc1-c1ccc2cc(-c3nn4cc(C(=O)N5CCC[C@@H](N)C5)cc(F)c4c3C)n(CC3CC3)c2n1` [Example 282, 3-(2-{6-[(3R)-3-Aminopiperidine-1-carbonyl]-4-fluoro-3-methylpyrazolo[1,5-a]pyridin-2-yl}-1-(cyclopropylmethyl)-1H-pyrrolo[2,3-b]pyridin-6-yl)-2-methylphenol], the IC50 was 170 nM.
